In general, EC50 refers to the midpoint of the concentration-response curve. By IC50 is commonly meant the concentration needed to halve the response being measured. One may read the IC90 as the concentration at which the effect reaches the 90% level.

We go through five molecules from patent US7754685B2, “Methods and pharmaceutical compositions for the treatment and prevention of hepatitis C infection” (Scynexis, Inc., priority 2005, dated 2010).

Where two headings read alike, the source gives them in different places.

Data set [1] has as its system HCV RNA replicon ET. The data set can be described thus: HCV RNA replicon assay in ET cell line, luciferase (LUC) endpoint, antiviral activity. In kind it is cell-based. Particulars: Hepatitis C virus; Example 6 (2′-C-methyl-cytidine combination experiment), single compound; read-out: EC50 of compound alone. Here is the method: The compounds of the present invention were tested for activity against HCV using the methods adapted from those described by Kriger et al., 2001, Journal of Virology, 75:4614-4624, Pietschmann et al., 2002, Journal of Virology 76:4008-4021, and using HCV RNA constructs as described in U.S. Pat. No. 6,630,343. The contents of these references are hereby incorporated by reference in their entireties.
Compounds were examined in the human hepatoma cell line ET (lub ubi neo/ET), a HCV RNA replicon containing a stable luciferase (LUC) reporter. The HCV RNA replicon ET contains the 5′ end of HCV (with the HCV Internal Ribosome Entry Site (IRES) and the first few amino acids of the HCV core protein) which drives the production of a firefly luciferase (LUC), ubiquitin, and neomycin phosphotransferase (NeoR) fusion protein. Ubiquitin cleavage releases the LUC and NeoR proteins. The EMCV IRES element controls the translation of the HCV, […] NS3-NS5. The NS3 protein cleaves the HCV polyprotein to release the mature NS3, NS4A, NS4B, NS5A and NS5B proteins that are required for HCV replication. At the 3′ end of the replicon is the authentic 3′ NTR of HCV.
Cyclosporine A was also tested.
Background: A replicon is a self-replicating genome or part of one, used to study replication in cells.

Data set [2] relates to Madin-Darby bovine kidney (MDBK) cells. As to the kind of experiment: BVDV drug-drug combination assay, cytotoxicity to target cells. Particulars: in combination with IFN-α. Format: cell-based. Here is the method: Phenazine methosulfate (PMS) solution was prepared at 0.15 mg/mL in PBS and stored in the dark at −20° C. XTT/PMS stock was prepared immediately before use by adding 40 μL of PMS per ml of XTT solution. Fifty microliters of XTT/PMS was added to each well of the plate and the plate was reincubated for 4 hours at 37° C. Plates were sealed with adhesive plate sealers and shaken gently or inverted several times to mix the soluble formazan product and the plate was read spectrophotometrically at 450/650 nm with a Molecular Devices Vmax plate reader.

The test system of data set [3] is Bovine Viral Diarrhea Virus (BVDV), NADL strain. The data set can be described thus: BVDV cytopathic effect drug-drug combination assay in MDBK cells (XTT), antiviral. In kind it is cell-based. To be noted: in combination with IFN-α. Background: Protection from cytopathic effect is a common read-out in antiviral testing.
In data set [4] the test system is HCV RNA replicon ET. As to the kind of experiment: HCV RNA replicon drug-drug combination (checkerboard, MacSynergy II) antiviral synergy. Format: cell-based. Here is the method:
Compounds and combinations were evaluated in the HCV replicon assay described in Example 2 with changes indicated below.
(§1) The HCV RNA replicon antiviral evaluation assay was utilized to examine the efficacy and cytotoxicity of two compounds (e.g., Drug 1 and Drug 2) in combinations of five versus nine half-log concentrations. The assay was performed using a microtiter plate format for allocation of media, drug, cells, and virus. […] Cells were processed 72 hr later when the cells were still sub-confluent. […] The cytotoxicity was evaluated as the concentration of the drug that reduced cell numbers as described in Example 2.
Compounds of this invention were tested as “Drug 2” at nine concentrations between 0.0078 to 2.0 μM. Interferon-alpha (Sigma) was tested as Drug 1 at 0.005 to 0.5 international units per mL (IU/mL). The data obtained from these checkerboard assays were analyzed with the MacSynergy II (v2.01) (Prichard & Shipman, 1990, Antiviral Res. 14:181-205) and Delta Graph (v1.5d) programs. Each data point used to create three-dimensional plots (FIGS. 1A-1C) was derived from the result of triplicate samples. The statistical relevance of the data was analyzed and plotted at one of three confidence levels (68%, 95% or 99%) to display combinatorial results as additive, synergistic or antagonistic.
Effects of the drug combinations were calculated based on the activity of each compound when tested alone. The expected additive antiviral protection was subtracted from the experimentally determined antiviral activity at each combination concentration resulting in a positive value (synergy), a negative value (antagonism) or zero (additive). […] Slightly synergistic activity and highly synergistic activity have been operationally defined as yielding synergy volumes of 50-100 and >100, respectively.
(§2) Compounds and combinations were evaluated in the HCV replicon assay described in Example 5 with changes noted below.
as §2
(§3) Effects of the drug combinations were calculated based on the activity of each compound when tested alone. The expected additive antiviral protection was subtracted from the experimentally determined antiviral activity at each combination concentration resulting in a positive value (synergy), a negative value (antagonism), or zero (additivity). The results of the combination assays are presented three dimensionally at each combination concentration, yielding a surface of activity extending above (synergy) or below (antagonism) the plane of additivity. The volume of the surface is calculated and expressed as a synergy volume (in units of concentration times concentration times percent; e.g. μM2%, nM2%, nMμM %, etc.) calculated at the 95% confidence interval.

For data set [5], the system named is human hepatoma cell line ET. As to the kind of experiment: HCV RNA replicon drug-drug combination, cytotoxicity volume. To be noted: in combination with Compound 3; FIG. 3B. Here is the method: as §1, §2, §3
The subject of data set [6] is human hepatoma cell line ET. To be noted: for IC90: read-out: Cytotoxicity IC90.
Method: The compounds were dissolved in DMSO at five half-log concentrations each, ranging from either 0.02 to 2.0 μM, 0.03 to 3 μM, 2.0 to 20 μM, or 1 to 100 μM. Subconfluent cultures of the ET line were plated out into 96 well plates dedicated for the analysis of cell numbers (cytotoxicity) or antiviral activity and the next day the compounds were added to the appropriate wells. The cells were processed 72 h later when the cells were still subconfluent. […] Cytotoxicity was expressed as IC50 and IC90, the concentration of compound that inhibited cell viability by 50% and 90%, respectively. Compound IC50 and IC90 values were calculated using a colorimetric assay as an indication of cell numbers and cytotoxicity. […] Cyclosporine was also tested by way of comparison.
For single-compound assays, the compounds were dissolved in DMSO at five half-log concentrations each, ranging from either 0.02 to 2 μM or 0.2 to 20 μM. Compound EC50 and EC90 values, as well as IC50 and IC90 values, were determined according to Example 2. […] Cyclosporine A was also tested.
The next data set relates to HCV. Particulars: interferon as single agent or with ribavirin; cited from earlier work.
Setting [7] is: in combination with 2′-C-methyl-cytidine, 95% confidence interval.
The mark [8] stands for this setting: in combination with IFNα, 95% confidence interval.
Where [9] appears, read: read-out: Cytotoxicity IC50, Example 2, ET cells, 72 h, colorimetric assay.
Where [10] appears, read: Example 2, ET cells, 72 h, colorimetric assay.
[11] abbreviates: read-out: IC50 of compound alone (cytotoxicity), Example 5 (IFNα combination experiment), single compound.

With `C[C@@]1(O)[C@H](O)[C@@H](CO)O[C@H]1n1ccc(N)nc1=O` [2′-C-methyl-cytidine, reference compound], in the data set on HCV RNA replicon ET [1], the EC50 is 750 nM.
As to `CC=CCC(C)C(O)C1C(=O)NC(CC)C(=O)N(C)C(OCCN(C)C)C(=O)N(C)C(CC(C)C)C(=O)NC(C(C)C)C(=O)N(C)C(CC(C)C)C(=O)NC(C)C(=O)NC(C)C(=O)N(C)C(CC(C)C)C(=O)N(C)C(CC(C)C)C(=O)N(C)C(C(C)C)C(=O)N1C` (stereo not shown) [C, 3-(2-N,N-dimethylaminoethoxy)cyclosporin], the “cytotoxicity interaction of the combination” value in data set [2] is reported as “Antagonistic cytotoxicity”. Moreover, the “drug interaction, anti-BVDV” value in data set [3] is on record as “Additive”.
`CC=CCC(C)C(O)C1C(=O)NC(CC)C(=O)N(C)C(SCCN(C)C)C(=O)N(C)C(CC(C)(C)O)C(=O)NC(C(C)C)C(=O)N(C)C(CC(C)C)C(=O)NC(C)C(=O)NC(C)C(=O)N(C)C(CC(C)C)C(=O)N(C)C(CC(C)C)C(=O)N(C)C(C(C)C)C(=O)N1C` [Compound O, 3-[(R)-2-(N,N-dimethylamino)ethylthio-Sar]-4-(gamma-hydroxymethylleucine)cyclosporin]: the values for the antiviral synergy volume in the data set on HCV RNA replicon ET [4] (setting [7]) and in the data set with HCV RNA replicon ET [4] (setting [8]) were 228 μM^2% and 122 IU/mLμM %, respectively. In addition, the “drug interaction (antiviral) of the combination” value with HCV RNA replicon ET [4] (setting [7]) was “highly synergistic (Slightly synergistic activity and highly synergistic activity have been operationally defined as yielding synergy volumes of 50-100 and >100, respectively)”; in the data set on HCV RNA replicon ET [4] (in combination with Compound 3 (HCV NS3-4A protease inhibitor), FIG. 3A), “additive or mildly synergistic”; with HCV RNA replicon ET [4] (setting [8]), “highly synergistic (Slightly synergistic activity and highly synergistic activity have been operationally defined as yielding synergy volumes of 50-100 and >100, respectively)”. The “cytotoxicity interaction of the combination” value is recorded as “antagonistic cytotoxicity” in data set [5] and “Antagonistic cytotoxicity” in data set [2]. Also, the IC50 in data set [6] (setting [9]) was 13400 nM; in data set [6] (setting [11]) it was over 2000 nM; in data set [6] (read-out: IC50 of compound alone (cytotoxicity), Example 6, single compound), over 2000 nM. The IC90 in data set [6] (setting [10]) was over 20000 nM.
Consider `CC=CCC(C)C(O)C1C(=O)NC(CC)C(=O)N(C)C(OC)C(=O)N(C)C(CC(C)(C)O)C(=O)NC(C(C)C)C(=O)N(C)C(CC(C)C)C(=O)NC(C)C(=O)NC(C)C(=O)N(C)C(CC(C)C)C(=O)N(C)C(CC(C)C)C(=O)N(C)C(C(C)C)C(=O)N1C` (stereo not shown) [Compound T, 3-(methoxy)-4-(gamma-hydroxymethylleucine)cyclosporin], for which, in the data set on HCV RNA replicon ET [4] (setting [8]), the antiviral synergy volume turned out to be 6 IU/mLμM %. The IC50 in data set [6] (setting [9]) and in data set [6] (setting [11]) was over 2000 nM throughout. The IC90 in data set [6] (setting [10]) was over 2000 nM.
On to interferon, for which the “share of the subject population in which the virus is eradicated” value with HCV is on record as 33-46%.
